Source: US7531320B2, “Modulation of β-catenin/TCF-activated transcription” (priority 2003, dated 2009)

Tests used:
[1] = test system: c-myc promoter; assay: ChIP assay, c-myc promoter in SW480 cells; type: cell-based, human; details: 25 μM, 8 hours
Experimental: FIG. 5. COMPOUND 1 inhibits the expression of cyclin D1. • A. Cyclin D1 levels are decreased with COMPOUND 1 treatment. Western blot analysis was performed on 25 μg of SW480 whole cell lysates treated for 4, 8, or 24 hours with either 25 μM of COMPOUND 1 or control (0.5% DMSO). Immunoblotting was performed using anti-Cyclin D1 antibodies (Santa Cruz Biotechnology Inc.). • B. In vivo occupancy of cyclin D1 and c-myc promoters by CBP and p300. […] ChIP assays were performed on promoter of c-myc from SW480 cells which was treated for 8 hours with COMPOUND 1 (25 μM) or control (0.5% DMSO). CBP (AC-26, a generous gift from Dr. David Livingston, Harvard University, Boston, Mass.) or p300 (C-20, Santa Cruz Biotechnology Inc.) specific antibodies were used to evaluate the promoter occupancy by CBP or p300 in presence of COMPOUND 1 or control (DMSO) treatment.
Formaldehyde cross-linking and chromatin immunoprecipitation assays of SW480 cells were performed as described previously (Barlev et al., “Acetylation of p53 activates transcription through recruitment of coactivators/histone acetyltransferases,” Mol. Cell 8:1243-54 (2001); El-Osta et al., “Analysis of chromatin-immunopurified MeCP2-associated fragments,” Biochem. Biophys. Res. Commun. 289:733-37 (2001); Shang et al., “Formation of the androgen receptor transcription Complex,” Mol. Cell 9:601-10 (2002)). […]

[2] = test system: SW480 cells; assay: cDNA microarray analysis (Clontech Atlas Human Cancer 1.2 Array) of SW480 cells; details: 25 μM; for Ratio, fos-related antigen (FRA1): gene code A13c; for Ratio, epidermal growth factor receptor (EGFR): gene code A12d; for Ratio, placental calcium-binding protein; calvasculin: gene code B07l; for Ratio, proliferating cyclic nuclear antigen (PCNA); cyclin: gene code C13e; for Ratio, growth arrest &DNA-damage-inducible protein 153 (GADD153): gene code C05d; for Ratio, integrin alpha 3 (ITGA3); galactoprotein B3 (GAPB3): gene code D03e; for Ratio, low-affinity nerve growth factor receptor (NGF receptor; NGFR): gene code D03k; for Ratio, histone H4: gene code D08b; for Ratio, nuclear protein: gene code D09b; for Ratio, interleukin-1 beta precursor (IL-1; IL1B); catabolin: gene code E07f; for Ratio, macrophage inhibitory cytokine 1 (MIC1): gene code E09e; for Ratio, neutrophil gelatinase-associated lipocalin precursor (NGAL): gene code F04i; for Ratio, early growth response alpha (EGR alpha): gene code F06n; for Ratio, gravin: gene code F09g; for Ratio, glycyl tRNA synthetase: gene code F13k

O=C1C(Cc2ccc(O)cc2)N2C(=O)CCN(C(=O)NCc3ccccc3)C2CN1Cc1cccc2ccccc12 (stereo not drawn) [COMPOUND 1]
Association of CBP with the c-myc promoter [1]: completely and selectively blocks | Level of p300 associated with the c-myc promoter [1]: increased | Ratio, WSL protein + TRAMP + Apo-3 + death domain receptor 3 (DDR3) ([2]; 8-hour treatment, […]): 1.84 | Ratio, integrin beta 4 (ITGB4); CD104 antigen ([2]; 8-hour treatment, […]): 1.84 | Ratio, G2/mitotic-specific cyclin B1 (CCNB1) ([2]; 8-hour treatment, gene code A05i): 0.57 | Ratio, matrix metalloproteinase 11 (MMP11); stromelysin 3 ([2]; 8-hour treatment, gene code A10f): 0.77 | Ratio, fos-related antigen (FRA1) ([2]; 8-hour treatment): 2.48 | Ratio, brain glucose transporter 3 (GTR3) ([2]; 8-hour treatment, gene code A14n): 1.94 | Ratio, epidermal growth factor receptor (EGFR) ([2]; 8-hour treatment): 4.20 | Ratio, ERBB-3 receptor protein-tyrosine kinase precursor ([2]; 8-hour treatment, gene code A14d): 1.36 | Ratio, linker for activation of T-cells (LAT) ([2]; 8-hour treatment, gene code B01m): 0.74 | Ratio, placental calcium-binding protein; calvasculin ([2]; 8-hour treatment): 0.85 | Ratio, ras-related C3 botulinum toxin substrate 2; p21-rac2 ([2]; 8-hour treatment, gene code B12j): 0.62 | Ratio, retinoic acid receptor beta (RXR-beta; RXRB) ([2]; 8-hour treatment, gene code B14n): 0.74 | Ratio, PTPCAAX1 nuclear tyrosine phosphatase (PRL-1) ([2]; 8-hour treatment, gene code B08h): 2.56 | Ratio, MCM4 DNA replication licensing factor; CDC21 homolog ([2]; 8-hour treatment, gene code C06f): 0.38 | Ratio, growth arrest &DNA-damage-inducible protein (GADD45) ([2]; 8-hour treatment, gene code C09i): 5.36 | Ratio, proliferating cyclic nuclear antigen (PCNA); cyclin ([2]; 8-hour treatment): 0.38 | Ratio, growth arrest &DNA-damage-inducible protein 153 (GADD153) ([2]; 8-hour treatment): 6.92 | Ratio, DNA-binding protein CPBP ([2]; 8-hour treatment, gene code D03b): 1.47 | Ratio, integrin alpha 3 (ITGA3); galactoprotein B3 (GAPB3) ([2]; 8-hour treatment): 2.82 | Ratio, low-affinity nerve growth factor receptor (NGF receptor; NGFR) ([2]; 8-hour treatment): 1.77 | Ratio, histone H4 ([2]; 8-hour treatment): 0.73 | Ratio, integrin alpha 7B precursor (IGA7B) ([2]; 8-hour treatment, gene code D08e): 1.69 | Ratio, paxillin ([2]; 8-hour treatment, gene code D08f): 2.14 | Ratio, nuclear protein ([2]; 8-hour treatment): 2.11 | Ratio, T-cell surface glycoprotein CD3 epsilon subunit precursor ([2]; 8-hour treatment, gene code D11c): 0.60 | Ratio, interleukin-13 precursor (IL-13); NC30 ([2]; 8-hour treatment, gene code E01g): 0.88 | Ratio, interleukin-1 beta precursor (IL-1; IL1B); catabolin ([2]; 8-hour treatment): 1.77 | Ratio, macrophage inhibitory cytokine 1 (MIC1) ([2]; 8-hour treatment): 6.94 | Ratio, nerve growth factor-inducible PC4 homolog ([2]; 8-hour treatment, gene code E03d): 3.27 | Ratio, neutrophil gelatinase-associated lipocalin precursor (NGAL) ([2]; 8-hour treatment): 5.85 | Ratio, ornithine decarboxylase ([2]; 8-hour treatment, gene code F05e): 1.82 | Ratio, early growth response alpha (EGR alpha) ([2]; 8-hour treatment): 3.15 | Ratio, ribonucleoside-diphosphate reductase M2 subunit ([2]; 8-hour treatment, gene code F07e): 0.53 | Ratio, type I cytoskeletal 18 keratin; cytokeratin 18 (K18) ([2]; 8-hour treatment, gene code F08f): 1.59 | Ratio, gravin ([2]; 8-hour treatment): 6.40 | Ratio, glycyl tRNA synthetase ([2]; 8-hour treatment): 2.23 | Ratio, proto-oncogene c-jun; transcription factor AP-1 ([2]; 24-hour treatment, gene code A01c): 1.34 | Ratio, EB1 protein ([2]; 24-hour treatment, gene code A02b): 0.52 | Ratio, c-myc binding protein MM-1 ([2]; 24-hour treatment, gene code A03g): 0.43 | Ratio, G1/S-specific cyclin D1 (CCND1); cyclin PRAD1; bcl-1 oncogene ([2]; 24-hour treatment, gene code A06i): 0.47 | Ratio, cyclin-dependent kinase regulatory subunit 1 (CKS1) ([2]; 24-hour treatment, gene code A10k): 0.28 | Ratio, cyclin-dependent kinase regulatory subunit (CKS2) ([2]; 24-hour treatment, gene code A11k): 0.40 | Ratio, fos-related antigen (FRA1) ([2]; 24-hour treatment): 1.99 | Ratio, epidermal growth factor receptor (EGFR) ([2]; 24-hour treatment): 2.51 | Ratio, ADP/ATP carrier protein ([2]; 24-hour treatment, gene code B02a): 0.21 | Ratio, 14-3-3 protein sigma; stratifin; epithelial cell marker protein 1 ([2]; 24-hour treatment, gene code B03m): 0.45 | Ratio, placental calcium-binding protein; calvasculin ([2]; 24-hour treatment): 0.50 | Ratio, ets domain protein elk-3; NET; SRF accessory protein 2 (SAP2) ([2]; 24-hour treatment, gene code C01j): 1.71 | Ratio, tumor necrosis factor type 1 receptor associated protein (TRAP1) ([2]; 24-hour treatment, gene code C04b): 0.73 | Ratio, MCM2 DNA replication licensing factor; nuclear protein BM28 ([2]; 24-hour treatment, gene code C05f): 0.23 | Ratio, proliferating cyclic nuclear antigen (PCNA); cyclin ([2]; 24-hour treatment): 0.33 | Ratio, HHR23A; UV excision repair protein protein RAD23A ([2]; 24-hour treatment, gene code C04h): 0.36 | Ratio, growth arrest &DNA-damage-inducible protein 153 (GADD153) ([2]; 24-hour treatment): 3.66 | Ratio, integrin alpha 3 (ITGA3); galactoprotein B3 (GAPB3) ([2]; 24-hour treatment): 2.99 | Ratio, low-affinity nerve growth factor receptor (NGF receptor; NGFR) ([2]; 24-hour treatment): 2.50 | Ratio, integrin beta 4 (ITGB4); CD104 antigen ([2]; 24-hour treatment, gene code D06e): 2.68 | Ratio, cytosolic superoxide dismutase 1 (SOD1) ([2]; 24-hour treatment, gene code D06m): 0.45 | Ratio, high mobility group protein HMG2 ([2]; 24-hour treatment, gene code D07b): 0.35 | Ratio, glutathione synthetase (GSH synthetase; GSH-S) ([2]; 24-hour treatment, gene code D07m): 0.34 | Ratio, histone H4 ([2]; 24-hour treatment): 0.27 | Ratio, nuclear protein ([2]; 24-hour treatment): 0.49 | Ratio, chromatin assembly factor 1 p48 subunit (CAF1 p48 subunit) ([2]; 24-hour treatment, gene code D12a): 0.70 | Ratio, N-sam; fibroblast growth factor receptor1 precursor (FGFR1) ([2]; 24-hour treatment, gene code D08h): 10.39 | Ratio, MHC class I truncated HLA G lymphocyte antigen ([2]; 24-hour treatment, gene code E02m): 1.36 | Ratio, 78-kDa glucose regulated protein precursor (GRP 78) ([2]; 24-hour treatment, gene code E02n): 2.35 | Ratio, PDGF associated protein ([2]; 24-hour treatment, gene code E04i): 0.45 | Ratio, interleukin-1 beta precursor (IL-1; IL1B); catabolin ([2]; 24-hour treatment): 1.98 | Ratio, macrophage inhibitory cytokine 1 (MIC1) ([2]; 24-hour treatment): 2.79 | Ratio, CD59 glycoprotein precursor ([2]; 24-hour treatment, gene code E11l): 0.66 | Ratio, fatty acid synthase ([2]; 24-hour treatment, gene code F03e): 0.34 | Ratio, vimentin (VIM) ([2]; 24-hour treatment, gene code F04g): 1.34 | Ratio, neutrophil gelatinase-associated lipocalin precursor (NGAL) ([2]; 24-hour treatment): 23.85 | Ratio, early growth response alpha (EGR alpha) ([2]; 24-hour treatment): 1.79 | Ratio, gravin ([2]; 24-hour treatment): 8.46 | Ratio, inosine-5′-monophosphate dehydrogenase 2 ([2]; 24-hour treatment, gene code F10c): 0.68 | Ratio, BENE ([2]; 24-hour treatment, gene code F12l): 2.07 | Ratio, elongation factor 2 (EF2) ([2]; 24-hour treatment, gene code F13j): 0.55 | Ratio, glycyl tRNA synthetase ([2]; 24-hour treatment): 2.02 | Ratio, TRAM protein ([2]; 24-hour treatment, gene code F09h): 3.25 | Ratio, L-lactate dehydrogenase H subunit (LDHB) ([2]; 24-hour treatment, gene code F06d): 0.40 | Ratio, brain-specific tubulin alpha 1 subunit (TUBA1) ([2]; 24-hour treatment, gene code G29): 0.72 | Ratio, HLA class I histocompatibility antigen C-4 alpha subunit (HLAC) ([2]; 24-hour treatment, gene code G31): 1.29 | Ratio, 23-kDa highly basic protein; 60S ribosomal protein L13A ([2]; 24-hour treatment, gene code G45): 0.65 | Genes analyzed down-regulated by greater than 50% ([2]; 8 hours): ~0.3% | Genes analyzed upregulated more than 2-fold ([2]; 8 hours): ~2%
